From the NIST ThermoML archive (doi:10.1016/j.jct.2019.03.007)

Experiment: molar heat capacity at constant pressure
Conditions: 101.33 kPa, Crystal 1, DSC

O=[N+]([O-])[O-].O=[N+]([O-])[O-].[Ca+2] [calcium nitrate]
Conditions | molar heat capacity at constant pressure [J/K/mol]
460.78 K | 169.24
461 K | 167.84
461.78 K | 169.39
462 K | 167.76
462.78 K | 169.54
463 K | 167.86
463.78 K | 169.69
464 K | 168.02
464.78 K | 169.84
465 K | 168.08
465.78 K | 169.99
466 K | 168.25
466.78 K | 170.14
467 K | 168.45
467.78 K | 170.28
468 K | 168.56
468.78 K | 170.43
469 K | 168.64
469.78 K | 170.57
470 K | 168.78
470.78 K | 170.71
471 K | 169.08
471.78 K | 170.84
472 K | 169
472.78 K | 170.98
473 K | 169.04
473.78 K | 171.11
474 K | 169.16
474.78 K | 171.24
475 K | 169.1
475.78 K | 171.37
476 K | 169.34
476.78 K | 171.5
477 K | 169.7
477.78 K | 171.63
478 K | 169.85
478.78 K | 171.76
479 K | 169.98
479.78 K | 171.88
480 K | 170.3
480.78 K | 172.01
481 K | 170.38
481.78 K | 172.14
482 K | 170.53
482.78 K | 172.27
483 K | 170.78
483.78 K | 172.4
484 K | 171.03
484.78 K | 172.53
485 K | 171.06
485.78 K | 172.66
486 K | 171.2
486.78 K | 172.79
487 K | 171.33
487.78 K | 172.92
488 K | 171.57
488.78 K | 173.05
489 K | 171.63
489.78 K | 173.19
490 K | 171.74
490.78 K | 173.32
491 K | 171.84
491.78 K | 173.45
492 K | 172.06
492.78 K | 173.58
493 K | 172.18
493.78 K | 173.7
494 K | 172.32
494.78 K | 173.83
495 K | 172.25
495.78 K | 173.96
496 K | 172.55
496.78 K | 174.08
497 K | 172.8
497.78 K | 174.21
498 K | 172.81
498.78 K | 174.34
499 K | 172.68
499.78 K | 174.47
500 K | 172.79
500.78 K | 174.6
501 K | 172.74
501.78 K | 174.72
502 K | 172.79
502.78 K | 174.85
503 K | 172.93
503.78 K | 174.98
504 K | 173.02
504.78 K | 175.1
505 K | 173.14
505.78 K | 175.23
506 K | 173.3
506.78 K | 175.35
507 K | 173.5
507.78 K | 175.47
508 K | 173.86
508.78 K | 175.6
509 K | 173.88
509.78 K | 175.72
510 K | 173.92
510.78 K | 175.84
511 K | 174.13
511.78 K | 175.96
512 K | 174.3
512.78 K | 176.08
513 K | 174.4
513.78 K | 176.2
514 K | 174.42
514.78 K | 176.32
515 K | 174.62
515.78 K | 176.44
516 K | 174.84
516.78 K | 176.57
517 K | 175.25
517.78 K | 176.69
518 K | 175.28
518.78 K | 176.81
519 K | 175.29
519.78 K | 176.93
520 K | 175.21
520.78 K | 177.05
521 K | 175.26
521.78 K | 177.17
522 K | 175.43
522.78 K | 177.29
523 K | 175.67
523.78 K | 177.42
524 K | 175.75
524.78 K | 177.54
525 K | 175.8
525.78 K | 177.66
526 K | 175.94
526.78 K | 177.78
527 K | 175.82
527.78 K | 177.91
528 K | 176.06
528.78 K | 178.03
529 K | 176.19
529.78 K | 178.15
530 K | 176.36
530.78 K | 178.27
531 K | 176.31
531.78 K | 178.39
532 K | 176.49
532.78 K | 178.51
533 K | 176.66
533.78 K | 178.64
534 K | 176.93
534.78 K | 178.76
535 K | 177.11
535.78 K | 178.88
536 K | 177.34
536.78 K | 179
537 K | 177.34
537.78 K | 179.12
538 K | 177.42
538.78 K | 179.24
539 K | 177.46
539.78 K | 179.36
540 K | 177.51
540.78 K | 179.48
541 K | 177.41
541.78 K | 179.6
542 K | 177.7
542.78 K | 179.71
543 K | 177.98
543.78 K | 179.83
544 K | 178.12
544.78 K | 179.95
545 K | 178.25
545.78 K | 180.07
546 K | 178.24
546.78 K | 180.18
547 K | 178.5
547.78 K | 180.3
548 K | 178.69
548.78 K | 180.41
549 K | 178.65
549.78 K | 180.52
550 K | 178.93
550.78 K | 180.64
551 K | 179.14
551.78 K | 180.75
552 K | 179.27
552.78 K | 180.86
553 K | 179.3
553.78 K | 180.97
554 K | 179.36
554.78 K | 181.08
555 K | 179.38
555.78 K | 181.19
556 K | 179.42
556.78 K | 181.3
557 K | 179.62
557.78 K | 181.42
558 K | 179.86
558.78 K | 181.53
559 K | 179.79
559.78 K | 181.64
560 K | 180.01
560.78 K | 181.75
561 K | 180.29
561.78 K | 181.86
562 K | 180.36
562.78 K | 181.98
563 K | 180.34
563.78 K | 182.09
564 K | 180.52
564.78 K | 182.2
565 K | 180.58
565.78 K | 182.32
566 K | 180.69
566.78 K | 182.43
567 K | 180.68
567.78 K | 182.55
568 K | 180.69
568.78 K | 182.66
569 K | 180.72
569.78 K | 182.78
570 K | 180.95
570.78 K | 182.89
571 K | 181.01
571.78 K | 183
572 K | 181.17
572.78 K | 183.12
573 K | 181.26
573.78 K | 183.23
574 K | 181.32
574.78 K | 183.35
575 K | 181.37
575.78 K | 183.47
576 K | 181.6
576.78 K | 183.59
577 K | 181.65
577.78 K | 183.7
578 K | 181.77
578.78 K | 183.82
579 K | 181.78
579.78 K | 183.94
580 K | 181.89
580.78 K | 184.05
581 K | 181.94
581.78 K | 184.16
582 K | 182.11
582.78 K | 184.27
583 K | 182.13
583.78 K | 184.38
584 K | 182.17
584.78 K | 184.49
585 K | 182.35
585.78 K | 184.59
586 K | 182.41
586.78 K | 184.69
587 K | 182.46
587.78 K | 184.79
588 K | 182.63
